We go through 6 compounds from US20250031689A1, “CRYOPRESERVATION COMPOSITIONS AND METHODS” (priority 2023, published 2025).

The test system of test [1] is ovine pre-adipocyte cells. Description: Freeze-thaw cryoprotection of cells suspended in saline, cell yield by ImageJ (FIG. 4). It counts as cell-based.
The subject of test [2] is HCT 115 cells. In words: Freeze-thaw cryoprotection of HCT 115 cells, crystal violet stain density (cell yield). It counts as cell-based. As to conditions: glutamate in OptiMEM, 96 hours growth after thaw. As to the method: FIG. 3. Cryoprotectant activity of glutamate requires concentrations greater than 50 mM. The dose response relationship of glutamate and its ability to impart cryoprotective activity to OptiMeM prompted the question of our findings being extensible to other cell types such as HCT 115 cells (FIG. 2). Cells were prepared as described above in OptiMEM medium containing either no additions, 7.5% DMSO, 50 mM glutamate, 150 mM glutamate, 250 mM glutamate, or 350 mM glutamate. Thawed cells were plated, washed at 24 hours to remove debris, and allowed to grow for a total of 96 hours, at which time they were fixed with 10% formol (15 minutes). Fixed cultures were stained with 0.2% crystal violet for 2 hours, destained in 4 changes of distilled water, dried and scanned on an Epson scanner at 1200 dpi (panel A). The density of stain from each culture, corresponding to cell yield, was quantified using ImageJ (NIH). The density of each culture was plotted in a bar graph and is shown in panel B. The stained 6-well plate containing each culture is shown in panel A, with insets showing a photograph from representative cultures visualized with a 4× objective after staining. The order of the samples in the plate shown in panel A is (left to right, top to bottom): media alone, media+7.5% DMSO, media+50 mM glutamate, media+150 mM glutamate, media+250 mM glutamate, media+350 mM glutamate. […]

The test system of test [3] is HEK293 cells. Description: Freeze-thaw (-80° C.) cryoprotection of HEK293 cells, post-thaw attachment/viability. The format is cell-based. The procedure: For the studies detailed below, the following procedures were used for preparation of cell cultures prior to cryopreservation: Both HEK-293 and HCT-115 cells were cultured in DMEM medium supplemented with 10% calf serum or 10% fetal calf serum. Two or three days prior to initiating a cryopreservation study, cells were seeded onto 100 mm tissue culture treated dishes in the above described culture medium and placed into a humidified, 5% CO2 incubator and allowed to propagate for 2 or 3 days. Preparation of growing cultures for cryostorage was performed as follows: Medium from 100 mm dishes containing growing cultures prepared as described above was aspirated and replaced with saline containing 0.5 mM EDTA and allowed to incubate for 2-3 minutes. This material was also aspirated and replaced with saline containing 0.25% trypsin and 0.25 mM EDTA. After incubating this second mixture for an additional 3-5 minutes and observing partial detachment of cells from dishes, cells were removed by using inertial force against the dish or by using a stream of saline or base culture medium to dislodge and collect cells from the dish. Cells harvested in this manner were separated by centrifugation (100 g×3 min), resuspended in the desired cryostorage solution, dispensed into polypropylene vials, positioned in microtube racks that were placed into a −80° C. freezer. Cells were kept frozen for 24-168 hours, at which time cryovials were removed to wet ice and cells thawed and plated into appropriate tissue culture vessels, typically 6 or 12 well plates. Cells were visualized with the aid of a Nikon TE300 microscope with an attached camera to allow documentation.
As described above, we wished to test the ability of amino acid species to serve as primary cryoprotectants per the definition provided, i.e. at concentrations at which they provided osmotic pressure sufficient to induce cell dehydration. For this purpose we prepared solutions of several amino acids, including alanine, glycine, proline, glutamate, histidine, aspartate, leucine, lysine, phenylalanine, threonine, arginine, and serine. These were standardized to 1M and adjusted to pH 7.1-pH 7.3, where possible or to maximal concentrations when 1M was above the solubility such as histidine and leucine. These solutions were used by dilution in water to test for their ability to serve as a cryoprotectant or diluted to the desired target concentration in a variety of base media including saline, and the two growth mediums described above (DMEM and OptiMeM) in the studies with three different mammalian cell lines described below described below.
FIG. 1. […] To test this capacity against a well-established cryoprotectant from those described above, HEK293 cultures were prepared as above in one of three base cryostorage mediums as noted below each pair of photographs depicted in panel A: (a) OptiMEM culture medium (ThermoFisher), a serum free growth medium, (b) DMEM culture medium containing 10% serum, or (c) 0.3M glutamate pH 7.2. One sample was prepared in each storage medium as described (labels on the bottom of each vertical pair of photographs), and an additional sample for each was prepared with 7.5% DMSO. 23 hours after plating thawed cells, cultures were visualized with 4× (upper) and 20× objectives (lower). […] The images were also analyzed using NIH Image to count cell numbers, depicted in panel B.
FIG. 2. […] HEK293 cells were prepared as described above in OptiMEM medium and apportioned into 4 samples containing 0 mM, 100 mM, 200 mM, or 300 mM glutamate (labels below photograph). After completing a freeze-thaw cycle, each sample was plated and visualized 23 hours after plating.

In test [4] the test system is mouse oocytes. As to conditions: 2M proline, in the presence of DMSO and ethylene glycol; cited from earlier work.
Test [5] has as its system RBCs. As to conditions: 1.5M proline, only in the presence of trehalose; cited from earlier work.
Test [6] relates to Cygnus monkey spermatozoa. As to conditions: at 5-10 mM; cited from earlier work.
The subject of test [7] is cells. As to conditions: NaCl at concentrations where glutamate acts as a CPA.
Method: We developed a workflow that tested cryoprotection of cells suspended in physiological saline (150 mM NaCl), overcoming the need to resuspend centrifuged cells directly in a final cryoprotection buffer. […] Thus, in these studies, trypsinized cells were centrifuged as described above, but resuspended in saline prior to diluting into a test solution. The photographs in FIG. 4A depict representative fields at 4× magnification of 6-well plates seeded with ovine pre-adipocyte cells, frozen in solutions comprised of agents and concentrations indicated to the left of each row. The cells in each field were enumerated by using ImageJ (NIH) to carryout noise reduction and thresholding before enumerating cell particles (FIG. 4B). It should be noted that dilution of the initial saline sample contributed 0.105 M NaCl concentration in addition to the agents indicated to the left. To provide a positive sample, we also tested DMSO at three concentrations (1%, 3%, and 10%). […] Therefore, we also tested binary mixtures as well as a ternary and a quaternary mixture.
We ascertained if such synergy might also exist with other well established cryoprotectants such as betaine or trehalose. […]

For `N[C@@H](CCC(=O)O)C(=O)O` [glutamate], the “cryoprotection as measured by cell yield” value in test [1] (glutamate as a sole agent, comparable to 3% and 10% DMSO) is given as “significant cryoprotection”. Moreover, the “concentration required for cryoprotectant activity” value in test [2] was “greater than 50 mM”. Further, the “post-thaw viability 23 hours after plating” value in test [3] (100 mM glutamate in OptiMEM) was “some extended post-thaw viability”. The “post-thaw viability and attachment 23 hours after plating” value in test [3] (200 mM and 300 mM glutamate in OptiMEM) is listed as “increased viability”. The “entry into the growth cycle compared to cells in medium alone” value in test [3] (0.3M glutamate in OptiMEM) is on record as “improved entry into the growth cycle”. Further, the “attachment of cells at 23 hours after plating thawed cells” value in test [3] (0.3M glutamate pH 7.2 as sole cryoprotectant) is reported as “attachment at least to the level of either medium containing DMSO”. Further, the “post-thaw viability in initial survey of amino acids” value in test [3] (HEK293 cells, compared among several amino acids) is given as “highest degree of post-thaw viability”.
Turning to `O=C(O)[C@@H]1CCCN1` [proline], in test [4], the “increase in implantation rate” value is 6-10%. Further, the “hemolysis of frozen cells” value in test [5] was “able to reduce hemolysis”. For the same compound, the “increase in post-thaw recovery above that obtained with the control” value (from here on “increase … with the control”) in test [6] was “approximately 20%”.
As to `[Cl-].[Na+]` [NaCl], the “cryoprotection by increased ionic strength” value in test [7] is on record as “does not provide any significant cryoprotection”.
Take `NCC(=O)O` [glycine]: the “increase … with the control” value in test [6] is reported as “approximately 20%”.
Regarding `NC(=O)CC[C@H](N)C(=O)O` [glutamine], the “increase … with the control” value in test [6] was “approximately 20%”.
Turning to `C[S+](C)[O-]` [DMSO, Dimethylsulfoxide], the “cryoprotection as measured by cell yield” value in test [1] (DMSO at 1%, saline, -80° C.) was “cryoprotective activity was apparent”; in test [1] (DMSO at 3% and 10%, saline, -80° C.), “capable cryoprotective agent”. The “attachment of cells at 23 hours after plating thawed cells” value in test [3] (7.5% DMSO in OptiMEM or DMEM containing 10% serum) is “do attach”.
